# Reference: patent US10981881B2, “FXR (NR1H4) modulating compounds” (Gilead Sciences, Inc., priority 2016, dated 2021)
# Columns and labels:
# [1] = Metabolite ID assay in human liver microsomes; format: in vitro ADME; conditions: human liver microsomes 1 mg/mL, 1 mM NADPH, 0, 30, 60 minutes
# Method: The metabolic stability of Example 3 and Comparative Example 1 in human liver microsomes was conducted according to the following procedure. Human liver microsomes (35 μL protein concentration 20 mg/mL), 350 μL of 100 mM potassium phosphate buffer (pH 7.4), 245 μL of deionized water and 0.7 μL of compound stock solution (5 mM) were combined in a 1.5 mL microcentrifuge tube. The tube was sealed and gently vortexed for 10 seconds, then placed in an Eppendorf ThermoMixer C and pre-warmed at 37° C. with shaking at 1100 rpm for 5 minutes.
# NADPH solution (70 μL; 10 mM in water) was added while shaking, the mixture was aspirated several times with pipet, and 200 μL was removed to a fresh 1.5 mL microcentrifuge tube on ice containing 200 μL of cold acetonitrile. […]
# The chilled aliquots were centrifuged at 14,300 rpm in a microcentrifuge for 10 minutes at 10° C., then the supernatant was transferred to a deepwell (1 mL) 96 well plate and sealed with a silicon mat. […] 20 μL samples were analyzed by UPLC-MS in order to identify and quantify the metabolites (Agilent 1290 G4220 binary pump UPLC with Agilent G1316 TCC column oven; Waters Acquity UPLC BEH C18 (130 Å pore size, 1.7 μm particle size, 2.1×50 mm) column held at 40° C.; Agilent 1290 G4212 DAD diode array with wavelength range 190 to 400 nm; Thermo Electron Orbitrap Elite mass spectrometer in FTMS positive mode). […]
# [2] = tested on: FGF19; conditions: cynomolgus monkey, in vivo, po, 300 mg/kg
# Method: In vivo pharmacodynamics of a representative compound of Formula (I) and a comparative example compound were determined as follows.
# Each dosing group consisted of three male Cynomolgus monkeys. At dosing, the animals weighed between 2.5 and 4.4 kg.
# The test articles were administered to the monkeys via oral gavage at 5 mL/kg. Prior to withdrawal, the gavage tube was flushed with approximately 10 mL of water.
# Venous blood samples were taken at specified time points after dosing from each animal. The blood samples were collected and transferred into tubes containing potassium (K2) EDTA anticoagulant.
# The FGF19 ELISA assay kit from BioVendor (product number RD191107200R) was used to determine FGF19 concentrations in the collected blood samples.
# An aliquot of 50 μL of each plasma sample from the 10 and 30 mg/kg dosing groups and the t=0 samples from the 100 and 300 mg/kg groups were treated with 200 μL of acetonitrile (ACN) containing internal standard. […] Samples exceeding the calibration range of the instrument were diluted and re-analyzed. […]
# An API 5000 triple quadrupole mass spectrometer from AB Sciex, Foster City, Calif. was used in multiple reaction monitoring mode to quantify the compounds.
formation of diol metabolite M1 [1],maximal plasma AUC achieved [2],plasma FGF19 Cmax ([2]; male) [ng/mL],SMILES
metabolized to a diol compound (M1),,,O=C(O)c1cnc(N2CC(O)(c3ccc(OCc4c(-c5c(Cl)cccc5Cl)noc4C4CC4)cc3Cl)C2)c(F)c1 [Comparative Example 1]
,comparable,16,"O=C(O)c1cnc(N2CC(O)(c3ccc(OCc4c(-c5c(Cl)cc(F)cc5Cl)noc4C4CC4)cc3Cl)C2)c(F)c1 [Example 3, 6-(3-(2-chloro-4-((5-cyclopropyl-3-(2,6-dichloro-4-fluorophenyl)isoxazol-4-yl)methoxy)phenyl)-3-hydroxyazetidin-1-yl)-5-fluoronicotinic acid]"
